The source of these data is patent US20260256790A1, “DEBIO-0123 IN COMBINATION WITH TEMOZOLOMIDE AND RADIOTHERAPY FOR USE IN TREATING GLIOMA” (Debiopharm International S.A., priority 2023, published 2026).

Series [1] is described as follows: Plasma, brain and CSF concentrations (PK) in healthy rats after single oral dose. The note with it: 15 mg/kg p.o. single dose; for Kp: 15 mg/kg. The series is classed as in vivo, Wistar Han rats. The procedure: Healthy male Wistar Han rats were treated orally with a single dose of 15 mg/kg Compound of formula (I) (24 rats in total, 3 rats per time-point). Compound of formula (I) was formulated as a suspension in 0.5% methylcellulose with 1% Tween 80 and administered at a concentration of 1.5 mg/mL with a dosing volume of 10 mL/kg.
At designated time-points (0.5; 1; 2; 4; 8; 24; 32; 48 hrs post-dose), the rats were euthanized by carbon dioxide inhalation. Thereafter, blood, CSF, and brain samples were collected as follows. Blood samples were collected by cardiac puncture into K2EDTA containing tubes. The tubes were inverted several times, placed on ice and centrifuged within 30 min of collection (4° C. for 5 min at 6000 rpm) to obtain plasma. The plasma samples were snap frozen in dry ice and stored at −80° C. until analysis. The CSF samples were collected by using a scalp-needle to puncture the foramen magnum. The CSF samples were acidified with 10% formic acid (final sample concentration of 0.5% formic acid) and stored in −80° C. until further analysis. The brain was collected, weighed and snap frozen in dry ice until further analysis. To obtain brain homogenates, firstly water was added to each brain (brain weight:water volume=1:4) then the brain was homogenized with a H-speed dispersator (time procedure: homogenizing for 10 s and interval of 10 s per time, total 3-5 times; cleaning procedure for dispersator: Water-Methanol-Ethanol-Water, 10 s each). The brain homogenate samples were transferred to individual tubes and stored at −80° C. prior to analysis.
The samples were analyzed as follows. For each analytical batch of plasma and brain samples, the standard and quality control (QC) samples were freshly prepared in blank male Wistar Han plasma (with K2EDTA anticoagulant) and brain homogenate. Acidified (containing 0.5% formic acid) artificial CSF was used as standard and quality control for the CSF samples. Additionally, one set of blank male Wistar Han CSF was included as QC sample.
To an aliquot of each standard, QC, control blank and study samples, internal standard (^13CD6-Compound of formula (I)) in methanol/acetonitrile (1:1, v/v) was added. The samples were mixed for 1 minute and centrifuged at 4000 rpm at 4° C. for 15 minutes. Supernatants were transferred and diluted in MeOH/water (1:1, v/v, with 0.1% FA) prior to LC-MS/MS injection.
Chromatographic separation was achieved on a Shimadzu LC-20AD (for plasma and brain samples) or Shimadzu LC-30AD (for CSF samples) using a Kinetex 2.6μ C18 100A column (50 mm*3.00 mm; for plasma and brain samples) or an ACE 5 C4 column (50 mm*2.1 mm; for CSF samples). The following conditions were applied: flow rate: 0.7 mL/min; run time: 3.0 min; mobile phase: A: 5 mM NH4OAc (0.1% FA), B: Acetonitrile (0.1% FA).
Detection was accomplished with an AB Sciex 5500 utilizing electrospray MS/MS in positive ion multiple reaction monitoring mode (MRM). The MRM channels were 511.29/98 for Compound of formula (I) and 518.17/102.10 for the internal standard ^13CD6-Compound of formula (I).
The measured plasma, CSF and brain concentrations at each time-point, the nominal sample collection time, and intended dosages were used for pharmacokinetic analysis. The PK parameters of all study compounds were determined by non-compartmental analysis using WinNonlin Version 8.0 (Pharsight).

Series [2] has as its system LN18 GBM cell line. The series can be described thus: Colony formation with radiotherapy, LN18. The series is classed as cell-based. The note with it: 0.1 μM to 5.0 μM, irradiated at 1, 2 and 4 Gy, p<0.0001. The procedure: GBM tumor cells (T98G, LN18, SNB-19 and U251) were grown as an adherent monolayer at 37° C. in a humidified atmosphere (5% CO2, 95% air). For experimental use, tumor cells were detached from culture flasks by a 5-minute treatment with trypsin-versene, in Hanks' medium without calcium or magnesium and neutralized by addition of complete culture medium. Cells were counted and viability assessed using a 0.25% trypan blue exclusion assay. All cell lines were appropriately seeded following the conditions for monolayer colony formation in 6-well plates (Ref #152795, Nunc, Dutscher) in 1.9 ml of cell culture medium, at 3 densities for evaluation of a proclonogenic effect. […]
Treatments were performed at 24 hours (D1) after seeding by addition of ×20 concentrated compound or vehicle solutions, to obtain final concentrations of 0.1 μM to 5.0 μM of Compound of formula (I) [referred to as CoF (I) in FIG. 3]. […] After 14 days of incubation, colonies were counted after being stained through incubation with 500 μl of a solution of water containing 0.05% (w/v) of methylene blue (Ref. M4159, Sigma) for 2 hours. Colonies were counted using a colony counter pen (Ref #045855, Dutscher, Brumath, France). The Surviving Fraction was calculated for each condition using the equations described below and plotted on a semi-logarithmic graph using the Linear-Quadratic model. […]

Structures are written as SMILES. Like-named read-outs stand apart in the source and are kept apart here.

As usually defined, the Cmax is the highest concentration seen after dosing. Regarding `Cc1cc(Nc2ncc3c(n2)N(C)CN(c2c(Cl)cccc2Cl)C3=O)ccc1C1CCN(C)CC1` [Compound of formula (I)], the “AUCInf, brain” value in series [1] amounted to 8415 ng·h/g. Further, the “AUCLast, brain” value in series [1] turned out to be 8383 ng·h/g. Moreover, in series [1], the “Cmax, CSF” value was 15.6 ng/mL. For the same molecule, in series [1], the “Cmax, brain” value was found to be 588 ng/g. The AUC(0-inf) in series [1] (male, Wistar Han, rat, CSF, po, read-out: AUCInf, CSF) was determined as 221 ng·h/mL; in series [1] (male, Wistar Han, rat, plasma, po, read-out: AUCInf, plasma), 14100 ng·h/mL. The AUC(0-t) in series [1] (male, Wistar Han, rat, CSF, po, read-out: AUCLast, CSF) was 219 ng·h/mL; in series [1] (male, Wistar Han, rat, plasma, po, read-out: AUCLast, plasma), 14100 ng·h/mL. The Kp in series [1] (male, Wistar Han, rat, CSF/unbound plasma, oral, unbound plasma from free fraction 7.8%, read-out: CSF to unbound plasma ratio based on AUCInf) came to 0.2; in series [1] (male, Wistar Han, rat, CSF/unbound plasma, oral, unbound plasma from free fraction 7.8%, read-out: CSF to unbound plasma ratio based on AUCLast), 0.2; in series [1] (male, Wistar Han, rat, CSF/unbound plasma, oral, unbound plasma from free fraction 7.8%, read-out: CSF to unbound plasma ratio based on Cmax), 0.18; in series [1] (male, Wistar Han, rat, brain/plasma, po, read-out: Brain to plasma ratio based on AUCInf) it was 0.6; in series [1] (male, Wistar Han, rat, brain/plasma, po, read-out: Brain to plasma ratio based on AUCLast), 0.6; in series [1] (male, Wistar Han, rat, brain/plasma, po, read-out: Brain to plasma ratio based on Cmax), 0.52. This molecule registered a Cmax in series [1] (male, Wistar Han, rat, plasma, po) of 1140 ng/mL. Further, the “Effect on radiotherapy (surviving fraction, colony formation)” value in series [2] is on record as “significantly increased effect of radiotherapy”.
